Results as given in ChEMBL document CHEMBL1201862, “PubChem BioAssay data set” (2004).
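Method: 48-hour compound exposure of cells in 96-well plates, five concentrations, linear interpolation of endpoints. The concentration for 50% growth inhibition is given as GI50.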 Active and inactive are the calls of the source. No stated cut-off is given here; in the data, active = GI50 up to about 1.1 µM and inactive = higher.

How the values were obtained:
Assay in all cases: inhibition of tumour cell growth, NCI panel, 48 h
SR = system: SR
MCF7 = system: MCF7
A498 = system: A498
SNB-75 = system: SNB-75
OVCAR-3 = system: OVCAR-3
OVCAR-4 = system: OVCAR-4
PC-3 = system: PC-3
SF-295 = system: SF-295
T47D = system: T47D
UACC-62 = system: UACC-62
HOP-62 = system: HOP-62
HCT-116 = system: HCT-116
SW-620 = system: SW-620
SN12C = system: SN12C
MDA-MB-231 = system: MDA-MB-231
SK-MEL-28 = system: SK-MEL-28
NCI-H226 = system: NCI-H226
NCI/ADR-RES = system: NCI/ADR-RES
U-251 = system: U-251
UACC-257 = system: UACC-257

Structure (SMILES)	GI50 (SR)	GI50 (MCF7)	GI50 (A498)	GI50 (SNB-75)	GI50 (OVCAR-3)	GI50 (OVCAR-4)	GI50 (PC-3)	GI50 (SF-295)	GI50 (T47D)	GI50 (UACC-62)	GI50 (HOP-62)	GI50 (HCT-116)	GI50 (SW-620)	GI50 (SN12C)	GI50 (MDA-MB-231)	GI50 (SK-MEL-28)	GI50 (NCI-H226)	GI50 (NCI/ADR-RES)	GI50 (U-251)	GI50 (UACC-257)
COc1cc(OC)c2c(=O)c(O)c(-c3ccc(OC)c(OC)c3)oc2c1	3.33 µM (inactive)	4.02 µM (inactive)	10.3 µM (inactive)	7.59 µM (inactive)	3.56 µM (inactive)	0.607 µM (active)	3.92 µM (inactive)	5.37 µM (inactive)	4.97 µM (inactive)	3.43 µM (inactive)	3.99 µM (inactive)	4.94 µM (inactive)	7.8 µM (inactive)	6.28 µM (inactive)	5.28 µM (inactive)	> 25.2 µM (inactive)	9.4 µM (inactive)	2.86 µM (inactive)	4.94 µM (inactive)	5.25 µM (inactive)
COc1ccc(N2C(=O)C3c4[nH]c5c(C)cccc5c4C4CCC(C(C)(C)C)CC4C3C2=O)cc1 (configuration not stated)	3.44 µM (inactive)	3.56 µM (inactive)	> 10 µM (inactive)	> 10 µM (inactive)	> 10 µM (inactive)	> 10 µM (inactive)	3.61 µM (inactive)	> 10 µM (inactive)	> 10 µM (inactive)	> 10 µM (inactive)	> 10 µM (inactive)	5.01 µM (inactive)	6.62 µM (inactive)	8.79 µM (inactive)	> 10 µM (inactive)	> 10 µM (inactive)	> 10 µM (inactive)	> 10 µM (inactive)	> 10 µM (inactive)	
CC(C)[Si](OCC/C=C/C1CCC(=O)C1C(O)C1CCCCC1)(C(C)C)C(C)C (configuration not stated)	4.29 µM (inactive)	15.9 µM (inactive)	18.3 µM (inactive)	15.2 µM (inactive)	16.5 µM (inactive)	20.1 µM (inactive)	13.3 µM (inactive)	16 µM (inactive)	15 µM (inactive)	14.9 µM (inactive)	16.9 µM (inactive)	14.7 µM (inactive)	16 µM (inactive)	18.2 µM (inactive)	18.8 µM (inactive)	15.1 µM (inactive)	16 µM (inactive)	13.9 µM (inactive)	15.8 µM (inactive)	15.4 µM (inactive)
COc1ccc(OC)c2c(=S)c3ccccc3[nH]c12	49.5 µM (inactive)	36.7 µM (inactive)	> 92.3 µM (inactive)	> 79.6 µM (inactive)	> 100 µM (inactive)	> 100 µM (inactive)	78.5 µM (inactive)	92.3 µM (inactive)	> 100 µM (inactive)	60.1 µM (inactive)	> 100 µM (inactive)	64.6 µM (inactive)	> 75.3 µM (inactive)	> 100 µM (inactive)	> 100 µM (inactive)	> 100 µM (inactive)	> 21.5 µM (inactive)	> 100 µM (inactive)	> 87.3 µM (inactive)	> 73.8 µM (inactive)
O=C(/C(=C(/Br)I)c1ccccc1)c1ccccc1	27 µM (inactive)	30.9 µM (inactive)	15 µM (inactive)	26.3 µM (inactive)	21.4 µM (inactive)		28.6 µM (inactive)	27.2 µM (inactive)	22.6 µM (inactive)	18.4 µM (inactive)		16 µM (inactive)		17.8 µM (inactive)	25.5 µM (inactive)		19.3 µM (inactive)	16.8 µM (inactive)	25.8 µM (inactive)	17.8 µM (inactive)
O=c1[nH]c(=O)n(C2CC(O)C(CO)O2)cc1Oc1ccccc1 (configuration not stated)	> 100 µM (inactive)	> 100 µM (inactive)		> 100 µM (inactive)	> 100 µM (inactive)	> 100 µM (inactive)	> 100 µM (inactive)	47.4 µM (inactive)	> 100 µM (inactive)	> 100 µM (inactive)	> 100 µM (inactive)	> 100 µM (inactive)		> 100 µM (inactive)	> 100 µM (inactive)	> 100 µM (inactive)	> 100 µM (inactive)	> 100 µM (inactive)	> 100 µM (inactive)	> 100 µM (inactive)
Oc1ccc(Cl)cc1-c1cc(-c2ccccc2)nc(NCN2CCCCC2)n1	4.19 µM (inactive)	2.78 µM (inactive)	> 100 µM (inactive)	> 100 µM (inactive)	> 100 µM (inactive)	> 100 µM (inactive)	> 100 µM (inactive)		> 100 µM (inactive)	> 100 µM (inactive)	> 100 µM (inactive)	6.68 µM (inactive)	> 100 µM (inactive)	> 100 µM (inactive)	> 100 µM (inactive)	> 100 µM (inactive)	0.838 µM (active)	> 100 µM (inactive)	> 100 µM (inactive)	> 100 µM (inactive)
